Experiments:
CT26 tumours = assay: Subcutaneous flank CT26 tumours in Balb/c mice, bacteria i.t. plus drug i.p., survival; type: in vivo
Protocol: Subcutaneous flank CT26 tumours growing in Balb/c mice were injected i.t with bacteria or PBS vehicle alone. Gemcitabine (60 mg/kg) was injected i.p. five times at three day intervals. FIG. 3A) Tumour volume (%) relative to the first day of gemcitabine injection (day 0) is shown. *P<0.03, **P=0.002 for gemcitabine alone versus gemcitabine+bacteria. […] Data are expressed as mean±SEM of 4 to 8 individual mice per group.
Subcutaneous flank CT26 tumours growing in Balb/c mice were injected i.t with bacteria or PBS vehicle alone. CB1954 (20 mg/kg) was injected i.p. for the duration of the experiment at 3 day intervals. FIG. 4A) Tumour volume (%) relative to the first day of CB1954 injection (day 0) is shown. […] P=0.0374). Data are expressed as mean±SEM of 3-5 individual mice per group.
FIGS. 12A-12D: Tumour therapy via in vivo activation of prodrugs. BALB/c mice bearing subcutaneous CT26 flank tumours colonised by E. coli Nissle 1917 received IP injections of CB1954+PBS, 5-FC+PBS, CB1954+5-FC or PBS three times per week. Tumours were monitored for changes in volume and luminescence (where applicable) from live bacteria on each treatment day. FIG. 12A) The change in bacterial luminescence (relative to day 0) from tumour colonising luminescent E. coli is shown. […] FIG. 12B) Changes in CT26 tumour volume were monitored until the first death in the group determined by a predefined endpoint. FIG. 12C-12D) Survival plot of each group starting from the first day of bacteria/drug administration.
Animals and tumour induction: 6-8 week old female BALB/c mice weighing approximately 18-20 g were kept as previously described. For tumour induction, a 200 μl suspension of 2×10^5 CT26 cells in serum free Dulbecco's Modified Eagle's Medium (DMEM) culture medium were injected subcutaneously into the flank of BALB/c mice. The viability of inoculated cells was determined using the Nucleocounter system (ChemoMetec). Tumour growth was monitored three times per week by caliper measurement and mice were randomly assigned to groups when the tumours reached approximately 100 mm^3 in volume. Mice were culled once tumours reached 1.5×1.5 cm in size (predetermined endpoint).
Bacterial administration to mice: Bacteria were grown overnight in LB medium and in a shaking incubator at 37° C. These bacteria were used to inoculate fresh growth medium and allowed to grow until reaching OD600 0.6. […]
Statistical analysis For biological in vitro and in vivo assays, two-sided, paired student's t test with 95% confidence or Mann Whitney U test were employed to investigate statistical differences, using GraphPad Prism@5.0 or Microsoft Excel 12. […] Statistical significance of survival between groups in murine experiments was determined using the Log-rank (Mantel-Cox) Test. […]

E. coli = assay: in vitro cytotoxicity screen of drugs co-incubated with E. coli (tumour cell survival, MTS); type: cell-based, E. coli Nissle 1917; conditions: drug co-incubated with E. coli, bacteria removed, filtrate applied to tumour cells; change relative to reference cytotoxic effect (drug without bacteria)
Protocol: (§1) 1. Bacteria and Drug are mixed in DMEM medium, and co-incubated for 3 h at 37° C. 2. The drug is separated from bacteria using centrifugation and filtration. 3. The filter sterilised DMEM containing the transformed drug is applied to tumour cells in a 96 well plate. 4. Tumour cell viability is evaluated via the MTS assay for end point measurements.
Bioluminescent E. coli was described by us previously and cultured in the presence of […] erythromycin. Listeria welshimeri Serovar 6B SLCC5334 was purchased from ECACC and cultivated at 37° C. in Brain Heart Infusion (BHI) medium. B. breve UCC2003 and Lactococcus lactis (UCC Culture Collection) was routinely grown at 37° C. in reinforced clostridial medium and M17 medium respectively (Oxoid, Basingstoke, UK). All lactobacilli strains were a kind gift of Dr. Cormac Gahan, UCC School of microbiology, and were grown in lactobacillus MRS broth (Beckton Dickinson). The E. coli nitroreductase deletion mutants and parent strains were kindly provided by Dr. Antonio Valle and grown in LB broth/agar with appropriate antibiotics. The strain Δ+A was created by transforming AB502 (streptomycin, kanamycin sensitive derivative of parent strain AB1157) with the plasmid pNZ44 (chloramphenicol resistance) carrying the gene nfsA. The strain Δ+B was created by transforming AB502 with the plasmid pTrc99A (ampicillin resistance) containing the gene nfsB (see below).
Microtitre plates (96-well) were pre-seeded with 4000 cells/well in appropriate medium for each cell line and allowed to attach overnight. The next day, bacteria were cultured to log-phase or stationery phase (Gram-positive) resuspended in PBS and added to 2 mls of DMEM to an OD600mn of 0.1-0.2 for E. coli 0.05 for Lactococcus lactis, and 0.3-0.4 for the rest of the Grand-positives. Each strain was exposed for 2-3 h to drug in a tissue culture incubator. Bacteria were separated from the drug by centrifugation and filter sterilisation using 0.2 μm pore filters (Starsted) after which 200 μl of filtrate was transferred to each well. […] Cytotoxicity was quantified using an MTS staining with the Cell Titre 96 AQueous One solution Cell Proliferation Assay (Promega). The plates were measured and analysed in a Spectra max M2 (Molecular devices) spectrophotometer at 490 nm.

L. welshimeri = assay: in vitro cytotoxicity screen of drugs co-incubated with L. welshimeri (tumour cell survival, MTS); type: cell-based, Listeria welshimeri Serovar 6B SLCC5334; conditions: drug co-incubated with L. welshimeri, bacteria removed, filtrate applied to tumour cells; change relative to reference cytotoxic effect (drug without bacteria)
Protocol: as §1
Bioluminescent E. coli was described by us previously and cultured in the presence of […] erythromycin. Listeria welshimeri Serovar 6B SLCC5334 was purchased from ECACC and cultivated at 37° C. in Brain Heart Infusion (BHI) medium. B. breve UCC2003 and Lactococcus lactis (UCC Culture Collection) was routinely grown at 37° C. in reinforced clostridial medium and M17 medium respectively (Oxoid, Basingstoke, UK). All lactobacilli strains were a kind gift of Dr. Cormac Gahan, UCC School of microbiology, and were grown in lactobacillus MRS broth (Beckton Dickinson). […]
Microtitre plates (96-well) were pre-seeded with 4000 cells/well in appropriate medium for each cell line and allowed to attach overnight. […] Cytotoxicity was quantified using an MTS staining with the Cell Titre 96 AQueous One solution Cell Proliferation Assay (Promega). The plates were measured and analysed in a Spectra max M2 (Molecular devices) spectrophotometer at 490 nm.

In the case of Nc1ccn([C@@H]2O[C@H](CO)[C@@H](O)C2(F)F)c(=O)n1 [Gemcitabine], the “median survival post Day 0” value (CT26 tumours; gemcitabine alone group (PBS i.t.), 60 mg/kg i.p. five times at three day intervals) was 28 days, the “median survival post Day 0” value (CT26 tumours; gemcitabine+bacteria group, E. coli i.t., gemcitabine 60 mg/kg i.p. five times at three day intervals, P=0.008 vs gemcitabine alone) was 17 days and the “Cytotoxicity E. coli” value (E. coli) was “Down”.

For CC1=CC(=O)c2ccccc2C1=O [Menadione], the “Cytotoxicity E. coli” value (E. coli) was “Down”.

For CC1(C)CCC2=C(O1)c1ccccc1C(=O)C2=O [B-Lapachone], the “Cytotoxicity E. coli” value (E. coli) was “Down”.

With Nc1nc(=O)[nH]cc1F [5-fluorocytosine] the “Cytotoxicity E. coli” value (E. coli) was “Up”.

NC(=O)c1cc(N2CC2)c([N+](=O)[O-])cc1[N+](=O)[O-] [CB1954] was tested, and the “median survival post Day 0” value (CT26 tumours; CB1954+bacteria group, E. coli i.t., CB1954 20 mg/kg i.p. at 3 day intervals, P=0.0374 vs CB1954 alone) was 26 days, the “median survival post Day 0” value (CT26 tumours; CB1954 alone group (PBS i.t.), 20 mg/kg i.p. at 3 day intervals) was 8 days and the “Cytotoxicity E. coli” value (E. coli) was “Up”.

In the case of Nc1nc(Cl)nc2c1ncn2[C@H]1C[C@H](O)[C@@H](CO)O1 [Cladribine], the “Cytotoxicity E. coli” value (E. coli) was “reduced cytotoxic effect and Down”.

For COc1cccc2c1C(=O)c1c(O)c3c(c(O)c1C2=O)C[C@@](O)(C(C)=O)C[C@@H]3O[C@H]1C[C@H](N)[C@H](O)[C@H](C)O1 [Daunorubicin], the “Cytotoxicity E. coli” value (E. coli) was “Down”.

For C[N+](C)([O-])CCNc1ccc(NCC[N+](C)(C)[O-])c2c1C(=O)c1c(O)ccc(O)c1C2=O [AQ4N], the “Cytotoxicity E. coli” value (E. coli) was “Up”.

For O=C1c2c(O)ccc(O)c2C(=O)c2c(NCCNCCO)ccc(NCCNCCO)c21 [Mitoxantrone], the “Cytotoxicity E. coli” value (E. coli) was “Down”.

For COc1cc([C@@H]2c3cc4c(cc3[C@@H](O[C@@H]3O[C@@H]5CO[C@@H](C)O[C@H]5[C@H](O)[C@H]3O)[C@H]3COC(=O)[C@H]23)OCO4)cc(OC)c1OP(=O)(O)O [Etoposide phosphate], the “Cytotoxicity E. coli” value (E. coli) was “Down”.

With OC[C@H]1O[C@@H](n2cnc3c(S)ncnc32)C[C@@H]1O [6-Mercaptopurine-2′-deoxyriboside] the “Cytotoxicity E. coli” value (E. coli) was “Up”.

With Nc1nc(F)nc2c1ncn2[C@@H]1O[C@H](COP(=O)(O)O)[C@@H](O)[C@@H]1O [Fludarabine de phosphate] the “Cytotoxicity E. coli” value (E. coli) was “Up” and the “Cytotoxicity L. welshimeri” value (L. welshimeri) was “Up”.

In the case of O=c1[nH]c(=O)n(C2CCCO2)cc1F (stereo not drawn) [Tegafur], the “Cytotoxicity E. coli” value (E. coli) was “Up”.

In the case of COc1cccc2c1C(=O)c1c(O)c3c(c(O)c1C2=O)C[C@@](O)(C(=O)CO)C[C@@H]3O[C@H]1C[C@H](N)[C@H](O)[C@H](C)O1 [Doxorubicin], the “Cytotoxicity E. coli” value (E. coli) was “Down”.

CC(=O)[C@]1(O)Cc2c(O)c3c(c(O)c2[C@@H](O[C@H]2C[C@H](N)[C@H](O)[C@H](C)O2)C1)C(=O)c1ccccc1C3=O [Idarubicin] was tested, and the “Cytotoxicity E. coli” value (E. coli) was “Down”.

For Nc1ncnc2c1ncn2[C@@H]1O[C@H](CO)[C@@H](O)[C@@H]1O [Vidarabine], the “Cytotoxicity E. coli” value (E. coli) was “Down”.

Source: US20170246223A1 (priority 2016, published 2017)
